Source: PubChem BioAssay AID1959 (Broad Institute, 2009)
The source made the active and inactive calls.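 Rule for the calls: active = growth-inhibition EC50 no more than tenfold above the top tested dose; inconclusive = flat fit between 30% and 70% inhibition, or unreliable fit; inactive = EC50 more than tenfold above the top tested dose.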

The compounds below were run on E. coli NEB5alpha growth, BacTiter-Glo luminescence, 4 h (assay: Escherichia coli growth inhibition, dose response, counter-screen for MEX-5/POS-1 RNA-binding inhibitor project, luminescence, NEB5alpha (AID 1959);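 note: pUC19-transformed ampicillin-resistant cells grown in LB with ampicillin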).

Compound	EC50
COc1ccc(NC(=O)/C=C/c2cccc(Br)c2)cn1	> 11 µM (inactive)
O=C(Nc1ccccc1)c1nn(-c2ccccc2)c(=O)cc1C(F)(F)F	> 11 µM (inactive)
Oc1ccc(-c2nc(-c3ccc(O)c(O)c3)cs2)cc1	> 11 µM (inactive)
COc1ccccc1CCC(=O)OCc1csc(CC(=O)Nc2ccccc2C)n1	> 11 µM (inactive)
Cc1ccc(Cl)c2c1=NC(=O)C=2c1[nH]c(=S)[nH]c1O	> 11 µM (inactive)
Cc1ccc(/C=C2\Oc3c(ccc(O)c3CN3CCN(C)CC3)C2=O)cc1	> 11 µM (inactive)
CCC(C)(C)NC(=O)C(c1cccn1C)N(C(=O)Cn1nnc2ccccc21)c1ccc(OC)cc1 (stereo not given)	> 11 µM (inactive)
Cc1c(NC(=O)c2coc(=O)c(Br)c2)c(=O)n(-c2ccccc2)n1C	> 11 µM (inactive)
O=C1c2cccc3c(O)ccc(c23)C(=O)N1Cc1ccccc1	> 11 µM (inactive)
Cc1cc(/C=C2\SC(=O)N(C)C2=O)c(C)n1-c1cccc(C(=O)O)c1	> 11 µM (inactive)
O=[N+]([O-])c1cccc(-c2cn3nc(-c4ccccc4)c(-c4ccccc4)nc3n2)c1	> 11 µM (inactive)
COC(=O)c1sccc1NC(=O)c1ccc(C)s1	> 11 µM (inactive)
COc1ccc(C(=O)/C=C2\NCC3c4ccccc4CCN3C2=O)cc1 (stereo not given)	> 11 µM (inactive)
Cc1cnc(C(=O)NNC(=O)c2ccc(Br)cc2)cn1	> 11 µM (inactive)
CC(=C\c1ccco1)/C=C1/SC(=S)N(CC(=O)O)C1=O	> 11 µM (inactive)
Cc1cc2c3c(c1C)C1(C(=O)N3C(C)(C)CC2C)C(C#N)=C(N)OC2=C1C(=O)CC(C)(C)C2 (stereo not given)	> 11 µM (inactive)
COc1ccc(CCCc2nc3ccccc3[nH]2)cc1	> 11 µM (inactive)
O=C(c1ccco1)N1CCN(c2ncnc3c(-c4ccc(Cl)cc4)nsc23)CC1	> 11 µM (inactive)
Nc1cc(S(=O)(=O)O)cc([N+](=O)[O-])c1O	> 11 µM (inactive)
O=C(Nc1ccnn1C1CCN(CC2CC=CCC2)CC1)c1ccccc1 (stereo not given)	> 11 µM (inactive)
COCCNC(=O)Cn1cc(/C=C2\C(=O)NC(=O)N(c3ccccc3F)C2=O)c2ccccc21	> 11 µM (inactive)
CSc1nnc(N2C(=O)C(O)=C(C(=O)c3ccco3)C2c2ccccc2)s1 (stereo not given)	> 11 µM (inactive)
COC(=O)c1c(=O)n(O)c2ccc(OC)cc2[n+]1[O-]	> 11 µM (inactive)
ClCc1nc2ccccc2n1Cc1ccccc1	> 11 µM (inactive)

Compound	EC50
S=c1[nH]c2ccccc2n2c(=S)[nH]nc12	> 11 µM (inactive)
Cc1cc(C(=O)O)ccc1-n1c(C)ccc1C	> 11 µM (inactive)
O=C(Nc1ccc(Br)cn1)c1ccc2nccnc2c1	> 11 µM (inactive)
CC1(OC(=O)c2ccco2)C(=O)C=C2C=C(c3ccsc3)OC=C2C1=O (stereo not given)	> 11 µM (inactive)
COc1ccc(/C=N/NC(=O)c2ccc(N(C)S(=O)(=O)c3ccccc3)cc2)cc1	> 11 µM (inactive)
Cc1[nH][nH]c(=O)c1C(c1cc([N+](=O)[O-])ccc1O)c1c(C)[nH][nH]c1=O	> 11 µM (inactive)
C/C(O)=c1/ccc2cccc3nc(C)nc1c23	> 11 µM (inactive)
O=C(N/N=C/c1cc(Cl)cc([N+](=O)[O-])c1O)c1ccccc1NS(=O)(=O)c1cccs1	> 11 µM (inactive)
Cc1ccc(N2C(=O)NC(=O)/C(=C/c3cnn(-c4ccc(C)cc4)c3)C2=O)cc1	> 11 µM (inactive)
Cc1cc(C)c[n+](-c2[nH]c(=O)sc2/C=N/NC([S-])=Nc2ccccc2)c1	> 11 µM (inactive)
O=c1[nH]c2c(s1)C=Nc1ccccc1N2	> 11 µM (inactive)
CCOc1ccc(-n2c(O)c(/C=C3\C=Nc4ccccc43)c(=O)[nH]c2=O)cc1	> 11 µM (inactive)
Cc1ccc(-n2ncc3c(NNC(=O)c4ccco4)ncnc32)cc1C	> 11 µM (inactive)
O=C1c2cccc3c(O)ccc(c23)C(=O)N1c1ccc(Cl)cc1	> 11 µM (inactive)
N#CC1=C(N)OC2=C(C(=O)CCC2)C1c1cc2c(cc1Br)OCO2 (stereo not given)	> 11 µM (inactive)
COc1cc2c3nnc(-c4ccccc4)c-3cn(Cc3ccccc3F)c2cc1OC	> 11 µM (inactive)
COc1ccc(N2C(=O)/C(=C/c3ccc(C)o3)C(=O)NC2=S)cc1	> 11 µM (inactive)
Nc1c(C(=O)c2ccc(Cl)cc2)sc2nsc(SCCN3CCOCC3)c12	> 11 µM (inactive)
CCCCC1(C)OC(=O)C(=Cc2ccc(N(CC)CC)cc2)C(=O)O1 (stereo not given)	> 11 µM (inactive)
COc1ccccc1C(=O)Nc1ccnn1C1CCN(C(C)CSC)CC1 (stereo not given)	> 11 µM (inactive)
O=C1N=c2ccc(Br)cc2=C1c1sc(=O)[nH]c1O	> 11 µM (inactive)
O=C(N1CCOCC1)N1CCC(n2nnc3cc(F)ccc32)CC1	> 11 µM (inactive)
Cc1ccc2c(c1C)NC(C(=O)O)C1CC=CC21 (stereo not given)	> 11 µM (inactive)
NS(=O)(=O)c1ccc(-c2ccc(/C=C3\NC(=S)NC3=O)o2)cc1	> 11 µM (inactive)

Compound	EC50
Cc1ccc(S(=O)(=O)NNc2nc3ccccc3nc2C(F)(F)F)cc1	> 11 µM (inactive)
CCCn1nc(C(=O)Nc2ccc3nc(C)sc3c2)c2ccccc2c1=O	> 11 µM (inactive)
COC(=O)CCC(=O)OC1(C)C(=O)C2=CN(CCCOC(C)C)C(c3ccc(OC)cc3)=CC2=C(Br)C1=O (stereo not given)	> 11 µM (inactive)
CC1C(=O)NN=C1C(=O)N/N=C/c1ccco1 (stereo not given)	> 11 µM (inactive)
N=c1c(S(=O)(=O)c2ccccc2)cc2c(=O)n3ccccc3nc2n1Cc1cccnc1	> 11 µM (inactive)
COc1ccccc1N1CC(C(=O)Nc2nnc(SCC(=O)NC(C)C)s2)CC1=O (stereo not given)	> 11 µM (inactive)
Cc1ccc2[nH]c3c(c2c1)CN(C(=O)CN1CCN(C(=O)c2ccco2)CC1)CC3	> 11 µM (inactive)
Cc1ccc(N(C)S(=O)(=O)c2c(C)noc2/C=C/N(C)C)cc1	> 11 µM (inactive)
c1coc(-c2nc3ccccc3nc2-c2ccco2)c1	> 11 µM (inactive)
COC(=O)C1=C(C)N(c2ccc(Cl)cc2)/C(=C/c2cccs2)C1=O	> 11 µM (inactive)
O=c1[nH]c(=O)n(CCc2ccccc2)c(O)c1C=NCCCn1ccnc1	> 11 µM (inactive)
COC(=O)c1ccccc1-n1c(CCC(=O)O)ccc1-c1ccccc1	> 11 µM (inactive)
COc1cc(NC(=O)CSc2nc3ncnc(N)c3[nH]2)c(C(=O)O)cc1OC	> 11 µM (inactive)
O=C(CN1CCC(n2nnc3cc(F)ccc32)CC1)NCCc1ccccc1	> 11 µM (inactive)
COc1cc(C2C(C#N)=C(N)Oc3n[nH]c(-c4cccnc4)c32)cc(Br)c1O (stereo not given)	> 11 µM (inactive)
CCCCN1C(=O)/C(=C2/Sc3ccc(OC)cc3N2CC)SC1=S	> 11 µM (inactive)
N=c1c(C(=O)NCC2CCCO2)cc2c(=O)n3ccccc3nc2n1Cc1cccnc1 (stereo not given)	> 11 µM (inactive)
O=C1C=CC(=O)C(C2=C3C(=O)N(CCc4ccccc4)CC(=O)N3CCC2)=C1	> 11 µM (inactive)
COc1ccc(NC(=O)C2Cc3ccccc3CN2C(=O)c2ccccc2)cn1 (stereo not given)	> 11 µM (inactive)
CC1(OC(=O)c2cccs2)C(=O)C=C2C=C3CCCN3C=C2C1=O (stereo not given)	> 11 µM (inactive)
O=[N+]([O-])c1ccc(C2=Nc3cc(Cl)ccc3OC2)cc1	> 11 µM (inactive)
COc1cc(C2C3CN(C)CC=C3C(C#N)=C(N)C2(C#N)C#N)ccc1OC(C)C (stereo not given)	> 11 µM (inactive)
Cc1ccc([N+](=O)[O-])cc1S(=O)(=O)Nc1ccc(O)c(Sc2ncn[nH]2)c1	> 11 µM (inactive)
CCCCC1=CC2=C(c3ccco3)C(=O)C(C)(OC(=O)c3ccc(OC)cc3)C(=O)C2=CN1C1CC1 (stereo not given)	> 11 µM (inactive)

Compound	EC50
CCCN1CC=C2C(C#N)=C(N)C(C#N)(C#N)C(c3cc(OC)ccc3OC)C2C1 (stereo not given)	> 11 µM (inactive)
C=CCSc1nnc(N2C(=O)C(O)=C(C(=O)c3ccco3)C2c2ccccc2F)s1 (stereo not given)	> 11 µM (inactive)
CCN1C(=O)C(=Cc2ccc(N3CCOCC3)o2)C(=O)N(CC)C1=S	> 11 µM (inactive)
C/C(N)=C(/C#N)C(=O)CSc1ncnc2ccccc12	> 11 µM (inactive)
C=CCn1c(O)c(C=Nc2ccc(N(CC)CC)cc2)c(=O)[nH]c1=O	> 11 µM (inactive)
O=C(O)c1cc(Cl)c2c(c1)[C@@H]1C=CC[C@@H]1[C@H](c1ccc(S(=O)(=O)N3CCOCC3)cc1)N2	> 11 µM (inactive)
O=S(=O)([N-]c1nc2ccccc2nc1-[n+]1ccc(CCCc2ccccc2)cc1)c1cccs1	> 11 µM (inactive)
O=C(NCC1CCCO1)c1ccc(CS(=O)(=O)Cc2ccc(F)cc2)o1 (stereo not given)	> 11 µM (inactive)
CCCCCCCCOc1ccc(C2OC34CCCCC3C(C#N)(C#N)C2(C#N)C(=N)O4)cc1 (stereo not given)	> 11 µM (inactive)
Cc1cc(/C=C(\C#N)C(=O)Nc2ccccc2)c(C)n1-c1ccc(C(=O)O)cc1	> 11 µM (inactive)
CN1CCCc2cc3c(C(F)(F)F)cc(=O)oc3nc21	> 11 µM (inactive)
CC(=O)N=Cc1c(C)c(C#N)c(=O)n(C)c1O	> 11 µM (inactive)
COC(=O)C1=COC(C)C2CN3CCc4c([nH]c5cc(OC)c(OC)cc45)C3CC12 (stereo not given)	> 11 µM (inactive)
CC(C)C1Nc2ccc(S(N)(=O)=O)cc2C2C=CCC21 (stereo not given)	> 11 µM (inactive)
COc1ccc(C2C(C#N)=C(N)OC3=C2C(=O)CC(C)(C)C3)cc1Cn1cc([N+](=O)[O-])cn1 (stereo not given)	> 11 µM (inactive)
CS(=O)(=O)Nc1nc2n(n1)C(c1ccccc1)C=C(c1ccc(Br)cc1)N2 (stereo not given)	> 11 µM (inactive)
COc1cc(C2C(C#N)=C(N)OC3=C2C(=O)CC(C)(C)C3)ccc1OCCN1CCOCC1 (stereo not given)	> 11 µM (inactive)
CC1=C(C#N)C(=O)NC(=O)/C1=C\c1ccc(-c2cc(C)c(C)cc2[N+](=O)[O-])o1	> 11 µM (inactive)
c1ccc2[nH]c3cc4ncnc4cc3nc2c1	> 11 µM (inactive)
CC(=O)NC1=NC(=O)/C(=C/c2cc(C)n(-c3cccc(C(=O)O)c3)c2C)S1	> 11 µM (inactive)
O=C(NCc1cccs1)C1CCN(S(=O)(=O)c2ccc(Br)s2)CC1	> 11 µM (inactive)
COCCN1CCC(CNCc2c(C(=O)N3CCCCC3)nc3c(C)cccn23)C1 (stereo not given)	> 11 µM (inactive)
CC1CN(C2CC(C)(C)NC(C)(C)C2)CCC1=O (stereo not given)	> 11 µM (inactive)
